Laboratory results from US9198433B2, “Substituted benzene fungicides” (E I DU PONT DE NEMOURS AND COMPANY, priority 2007, dated 2015).
Read-outs that look alike come from different tables or passages of the source. Marks after values point to notes of the source that are not given here.

Legend:
Type in all cases: in vivo
Botrytis cinerea = experiment: Test F: tomato Botrytis, preventive spray on tomato seedlings, disease rating
In short: (§1)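 Tomato seedlings sprayed to run-off, as a preventive treatment, with compound suspended in acetone/water (50/50) containing 250 ppm Trem 014 surfactant; 200 ppm equals 500 g/ha. Disease then rated. Values are at 200 ppm unless marked * (40 ppm) or ** (50 ppm).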

[1] = tested on: Puccinia recondita f. sp. tritici; experiment: Test B: wheat leaf rust, preventive spray on wheat seedlings, disease rating
In short: (§2)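 Compounds were dissolved in acetone (3% of final volume), then suspended in 50/50 acetone/water with 250 ppm polyhydric alcohol ester surfactant and sprayed to run-off on wheat seedlings. Unless marked otherwise, values are at 200 ppm (equivalent to 500 g/ha); some are at 40 or 50 ppm.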

Fusarium graminearum = conditions: 200 ppm; wheat head scab
Alternaria solani = experiment: Test H: tomato early blight, preventive spray on tomato seedlings, disease rating
In short: as §1

Rhizoctonia oryzae = experiment: Test I: turf brown patch, preventive spray on creeping bent grass seedlings, disease rating
Text: The test compounds were first dissolved in acetone in an amount equal to 3% of the final volume and then suspended at the desired concentration (in ppm) in acetone and purified water (50/50 mix) containing 250 ppm of the surfactant Trem® 014 (polyhydric alcohol esters). The resulting test suspensions were then used in Tests A-L. Spraying a 200 ppm test suspension to the point of run-off on the test plants was the equivalent of an application rate of 500 g/ha. The test suspension was sprayed to the point of run-off on creeping bent grass seedlings. […] A dash (-) indicates no test results. All results are for 200 ppm except where followed by an “*”, which indicates 40 ppm or “**”, which indicates 50 ppm.

[2] = tested on: Erysiphe graminis f. sp. tritici; experiment: Test A: wheat powdery mildew, preventive spray on wheat seedlings, disease rating
In short: as §2

Phytophthora infestans = conditions: tomato late blight
Septoria nodorum = experiment: Test C: wheat glume blotch, preventive spray on wheat seedlings, disease rating
In short: as §2

Plasmopara viticola = experiment: Test K: grape downy mildew, spray on grape seedlings after inoculation, disease rating
Text: The test compounds were first dissolved in acetone in an amount equal to 3% of the final volume and then suspended at the desired concentration (in ppm) in acetone and purified water (50/50 mix) containing 250 ppm of the surfactant Trem® 014 (polyhydric alcohol esters). The resulting test suspensions were then used in Tests A-L. Spraying a 200 ppm test suspension to the point of run-off on the test plants was the equivalent of an application rate of 500 g/ha. Grape seedlings were inoculated with a spore suspension of Plasmopara viticola (the causal agent of grape downy mildew) and incubated in a saturated atmosphere at 20° C. for 24 h. After a short drying period, the test suspension was sprayed to the point of run-off on the grape seedlings and then moved to a growth chamber at 20° C. for 6 days, after which the test units were placed back into a saturated atmosphere at 20° C. for 24 h. Upon removal, disease ratings were made. […] A dash (-) indicates no test results. All results are for 200 ppm except where followed by an “*”, which indicates 40 ppm or “**”, which indicates 50 ppm.

Pythium aphanidermatum = experiment: Test L: bluegrass pythium blight, preventive spray on bluegrass seedlings, disease rating
Text: The test compounds were first dissolved in acetone in an amount equal to 3% of the final volume and then suspended at the desired concentration (in ppm) in acetone and purified water (50/50 mix) containing 250 ppm of the surfactant Trem® 014 (polyhydric alcohol esters). The resulting test suspensions were then used in Tests A-L. Spraying a 200 ppm test suspension to the point of run-off on the test plants was the equivalent of an application rate of 500 g/ha. The test suspension was sprayed to the point of run-off on bluegrass seedlings. […] A dash (-) indicates no test results. All results are for 200 ppm except where followed by an “*”, which indicates 40 ppm or “**”, which indicates 50 ppm.

Septoria tritici = experiment: Test D: wheat leaf blotch, preventive spray on wheat seedlings, disease rating
In short: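 Wheat seedlings sprayed to run-off with compound in acetone/water containing 250 ppm Trem 014 (200 ppm ≈ 500 g/ha; some results at 40 or 50 ppm), inoculated next day with Septoria tritici spores. Held 48 h saturated at 24 °C, then 19 days at 20 °C before disease rating.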

Row | SMILES | Percentage Disease Control, Test F (Botrytis cinerea; 200 ppm) [%] | Percentage Disease Control, Test B ([1]; 200 ppm) [%] | Percentage Disease Control, Test E (Fusarium graminearum) [%] | Percentage Disease Control, Test H (Alternaria solani; 200 ppm) [%] | Percentage Disease Control, Test I (Rhizoctonia oryzae; 200 ppm) [%] | Percentage Disease Control, Test A ([2]; 200 ppm) [%] | Percentage Disease Control, Test J (Phytophthora infestans; 200 ppm) [%] | Percentage Disease Control, Test C (Septoria nodorum; 200 ppm) [%] | Percentage Disease Control, Test K (Plasmopara viticola; 200 ppm) [%] | Percentage Disease Control, Test L (Pythium aphanidermatum; 200 ppm) [%] | Percentage Disease Control, Test D (Septoria tritici; 40 ppm (*)) | other results
1 | COC(=O)NCc1cc(-c2ccn(Cc3cccc(C)n3)n2)ccc1Cl [Cmpd 20] | 0 | 100 | 72 | 0 | 0 | 99 | 0 | 96 | 0 | 0 |  | 
2 | COC(=O)NCc1cc(-c2ccn(CCCC#N)n2)ccc1Cl [Cmpd 32] | 0 | 80 |  | 0 | 0 | 41 | 0 | 0 | 34 | 0 |  | Percentage Disease Control, Test D (Septoria tritici; 200 ppm): 88%
3 | C=C[Si](C)(C)CON=C(C)c1ccc(Cl)c(CNC(=O)OC)c1 [Compound 4] | 37 | 99 | 97 |  | 0 | 98 | 0 | 99 | 74 | 0 | 59* % | 
4 | COC(=O)NCc1cc(C(C)=NOCC(C)[Si](C)(C)C)ccc1Cl (centres unmarked) [Compound 2, methyl N-[[2-chloro-5-[1-[[2-(trimethylsilyl)propoxy]imino]ethyl]phenyl]-methyl]carbamate] | 0 | 100 | 100 |  | 0 | 100 | 0 | 99 | 70 | 0 | 91* % | 
5 | COC(=O)NCc1cc(-c2ccn(CCC=C(C)C)n2)ccc1Cl [Cmpd 30] | 0 | 98 |  | 0 | 0 | 83 | 0 | 73 | 74 | 0 |  | Percentage Disease Control, Test D (Septoria tritici; 200 ppm): 90%
6 | C=C(CON=C(C)c1ccc(Cl)c(CNC(=O)OC)c1)C[Si](C)(C)C [Compound 3] | 0 | 100 | 87 |  | 0 | 98 | 0 | 99 | 26 | 0 | 16* % | 
7 | COC(=O)NCc1cc(-c2cc[nH]n2)ccc1Cl [Cmpd 21] | 0 | 79 | 0 | 0 | 0 | 0 | 0 | 0 | 0 | 0 |  | 
8 | COC(=O)NCc1cc(-c2ccn(C(C)[Si](C)(C)C)n2)ccc1Cl (centres unmarked) [Cmpd 29] |  |  |  |  |  |  |  |  |  |  |  | Percentage Disease Control, Test F (Botrytis cinerea; 50 ppm (**)): 0** %; Percentage Disease Control, Test B ([1]; 50 ppm (**)): 98** %; Percentage Disease Control, Test D (Septoria tritici; 50 ppm (**)): 96** %; Percentage Disease Control, Test H (Alternaria solani; 50 ppm (**)): 67** %; Percentage Disease Control, Test I (Rhizoctonia oryzae; 50 ppm (**)): 0** %; Percentage Disease Control, Test A ([2]; 50 ppm (**)): 78** %; Percentage Disease Control, Test J (Phytophthora infestans; 50 ppm (**)): 0** %; Percentage Disease Control, Test C (Septoria nodorum; 50 ppm (**)): 82** %; Percentage Disease Control, Test K (Plasmopara viticola; 50 ppm (**)): 27** %; Percentage Disease Control, Test L (Pythium aphanidermatum; 50 ppm (**)): 0** %
